Key:
GST-Xa-hAAK1 = target: T1, GST-Xa-hAAK1 (Homo sapiens, UniProt Q2M2I8); experiment: AAK1 Kinase Assay (Caliper LabChip, fluoresceinated peptide substrate); type: biochemical; conditions: ATP 22 μM
T1 construct: made in house
Method: The assays were performed in U-bottom 384-well plates. The final assay volume was 30 μl prepared from 15 μl additions of enzyme and substrates (fluoresceinated peptide (5-FAM)-Aha-[…]-NH2 and ATP) and test compounds in assay buffer (10 mM Tris-HCL pH 7.4, 10 mM MgCl2, 0.01% Tween-20 and 1.0 mM DTT). The reactions were initiated by the combination of bacterially expressed, GST-Xa-hAAK1 with substrates and test compounds. The reactions were incubated at room temperature for 3 hours and terminated by adding 60 μl of 35 mM EDTA buffer to each sample. The reactions were analyzed on the Caliper LabChip 3000 (Caliper, Hopkinton, Mass.) by electrophoretic separation of the fluorescent substrate and phosphorylated product. […] The final concentration of reagents in the assays are ATP, 22 μM; (5-FAM)-Aha-[…]-NH2, 1.5 μM; GST-Xa-hAAK1, 3.5 nM; and DMSO, 1.6%. Dose response curves were generated to determine the concentration required inhibiting 50% of kinase activity (IC50). Compounds were dissolved at 10 mM in dimethylsulfoxide (DMSO) and evaluated at eleven concentrations. IC50 values were derived by non-linear regression analysis.

AAK1 (full length human) = target: T2, AAK1 (full length human) (Homo sapiens, UniProt Q2M2I8); experiment: HEK281 Cell-Based Assay (HEK293F cells transfected with AAK1 and AP2M1; phospho-mu2 Western blot); conditions: 3 h
T2 construct: HA; expressed in transfected cells; host or cells: HEK293F
Method: HEK293F cells were cultured in media containing DMEM (Gibco, cat. #11965), 10% FBS (SAFC Biosciences, cat. #12103C), 1× GPS (glutamine, penicillin and streptomycin). On day one, cells were plated on a 10 cm dish so that they are ˜80% confluent at time of transfection. Roughly 12 million cells were in a 10 cm dish at time of transfection. On day two, each dish was transfected with 48 ug DNA and 144 μl Lipofectamine 2000 (Invitrogen, cat. #11668-019). The DNA was comprised of a mixture (per 10 cm dish) containing 3 ug AAK1/HA/pIRES (full length human, NCBI accession no. NP_055726.2), 45 μg Flag/AP2MI/pcDNA (full length human), and 1.5 ml OPTI-MEM. The Lipofectamine 2000 is made up of a mixture (per 10 cm dish) containing 144 μl Lipofectamine 2000 and 1.5 ml OPTI-MEM. Each mixture was transferred to individual 15 ml tubes and incubated at RT for 5 minutes, and then the two mixes were combined and incubated at RT for 20 minutes. Growth media was then aspirated from each 10 cm plate and replaced with 10 ml of DMEM+10% FBS (no GPS). Finally, 3 ml DNA/Lipofectamine mix was added to each 10 cm dish and mix gently followed by incubate of plate overnight at 37° C. and 5% CO2.
On day three, compounds were diluted in 100% DMSO at 1000× final concentration, followed by 3-fold serial dilutions for a total of 5 concentrations tested. Four compounds were tested per 10 cm dish. One ul of each compound dilution was then pipetted into a deep-well, 96-well plate, followed by addition of 500 μl DMEM+0.5% FBS into each well for a 2× final concentration of each compound. Cells were resuspended in a 10 cm dish by simple pipetting (HEK293 cells come off the plate that easy at this point) and then transferred to a 50 ml conical tube and pelleted by centrifugation at 1000 rpm for 5 min. Cell pellets were then resuspended in 2.75 ml DMEM+0.5% FBS per 10 cm dish and 100 μl of cell suspension transferred into each well of 96-well TC plate. Finally, 100 μl of 2× compound diluted in DMEM+0.5% FBS was then added into wells containing cell suspension for a 1× final concentration. Plates were then incubated at 37° C. and 5% CO2 for 3 hours followed by transferring of cell suspensions from each well into 12-tube PCR strips. The PCR strips were spun in a tip rack at 1000 rpm for 5 minutes to pellet cells and media was then removed by pipetting without disturbing the cell pellet.
To prepare for Western Blot analysis, cell pellets were resuspend in 40 ul 1× LDS-PAGE sample buffer (Invitrogen, cat. #NP0008)+2× Halt phophatase and protease inhibitor cocktail (Thermo Scientific, cat. #1861284), followed by sonicating each with microtip sonicator set at 5 for 8-10 seconds. Five ul of 10× NuPage Sample Reducing Agent (with […]) was to each sample followed by heat denaturing at 70C for 10 min on PCR machine. A total of 10 μl per sample was loaded into each lane of a 4-20% Tris-Glycine Criterion 26-well gel (Biorad, cat. #345-0034) for the phospho-mu2 blot and 10 μl per lane in a 4-12% Bis-Tris (+MES buffer) NuPAGE 26-well gel (Invitrogen, cat. #WG1403BX10) for the mu2 blot. For controls, 2 ng of phospho-mu2 or 20 ng mu2/Flag proteins were loaded in the last well of each gel. After SDS-PAGE, samples on each gel were transferred to PVDF membrane using an iBlot and membranes were blocked for one hour in TBST+5% milk, followed by wash 3× for 5-10 min with TBST. Criterion gels were probed with rabbit anti-phospho-mu2 (1:5000; a rabbit polyclonal antibody produced by New England Peptide and affinity purified at Lexicon) in TBST+5% BSA, whereas, NuPAGE gels were probed with mouse anti-Flag (1:500; Sigma, cat. #F1804) in TBST+5% milk, and these primary antibodies were incubated overnight at 4° C. on a rocker. […]

T1 sequence (Q2M2I8 whole entry): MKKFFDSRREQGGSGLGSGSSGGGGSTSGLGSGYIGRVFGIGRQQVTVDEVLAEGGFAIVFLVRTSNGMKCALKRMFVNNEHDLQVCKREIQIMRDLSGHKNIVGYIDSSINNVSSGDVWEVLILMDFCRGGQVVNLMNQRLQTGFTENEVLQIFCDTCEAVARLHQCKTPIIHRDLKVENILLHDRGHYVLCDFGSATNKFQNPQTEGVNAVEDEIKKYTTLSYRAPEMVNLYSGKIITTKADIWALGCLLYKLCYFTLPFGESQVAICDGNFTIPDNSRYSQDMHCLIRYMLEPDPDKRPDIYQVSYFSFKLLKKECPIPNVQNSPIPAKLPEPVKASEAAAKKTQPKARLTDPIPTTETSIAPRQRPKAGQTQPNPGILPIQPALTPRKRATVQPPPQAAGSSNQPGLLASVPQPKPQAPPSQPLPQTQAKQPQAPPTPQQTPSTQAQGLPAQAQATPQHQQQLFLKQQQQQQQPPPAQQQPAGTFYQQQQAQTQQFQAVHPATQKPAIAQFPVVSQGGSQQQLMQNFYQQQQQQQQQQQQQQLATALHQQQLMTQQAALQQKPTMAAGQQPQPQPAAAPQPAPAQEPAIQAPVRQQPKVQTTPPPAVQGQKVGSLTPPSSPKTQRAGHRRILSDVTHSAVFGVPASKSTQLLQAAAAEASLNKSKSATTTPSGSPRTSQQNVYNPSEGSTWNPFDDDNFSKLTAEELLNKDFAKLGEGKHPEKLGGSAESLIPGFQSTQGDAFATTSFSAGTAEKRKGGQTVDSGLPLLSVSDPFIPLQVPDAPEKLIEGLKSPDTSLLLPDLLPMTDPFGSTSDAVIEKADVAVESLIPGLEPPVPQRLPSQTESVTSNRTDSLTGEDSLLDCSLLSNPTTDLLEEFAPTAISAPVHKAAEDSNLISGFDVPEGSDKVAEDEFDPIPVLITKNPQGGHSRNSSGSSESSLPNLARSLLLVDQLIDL
T2 sequence (Q2M2I8 whole entry): as above

| IC50 (GST-Xa-hAAK1; listed as IC50 ranges) | Structure (SMILES) | also measured |
| --- | --- | --- |
| 1 to 10 nM | CC(C)C[C@H](N)COc1ccc2c(c1)OC(C)c1cnccc1-2 (mixture of isomers) [Example 6, (2S)-4-methyl-1-(5-methyl-5H-chromeno[3,4-c]pyridin-8-yloxy)pentan-2-amine] |  |
| 10 to 100 nM | CC(C)C[C@H](N)COc1ccc2c(c1)OC(C1CC1)c1cnccc1-2 (mixture of isomers) [Example 8, (2S)-1-(5-cyclopropyl-5H-chromeno[3,4-c]-pyridin-8-yloxy)-4-methylpentan-2-amine] | IC50 (AAK1 (full length human); listed as IC50 ranges): 10 to 100 nM |
| 10 to 100 nM | CCC1Oc2cc(OC[C@@H](N)CC(C)C)ccc2-c2ccncc21 (mixture of isomers) [Example 10, (2S)-1-(5-ethyl-5H-chromeno[3,4-c]pyridin-8-yloxy)-4-methylpentan-2-amine] | IC50 (AAK1 (full length human); listed as IC50 ranges): 10 to 100 nM |
| 1 to 10 nM | CC(C)C[C@H](N)COc1cc2c(cc1Br)-c1ccncc1C(C)O2 (mixture of isomers) [Example 21, (2S)-1-(9-bromo-5-methyl-5H-chromeno[3,4-c]pyridin-8-yloxy)-4-methylpentan-2-amine] | IC50 (AAK1 (full length human); listed as IC50 ranges): < 1 nM |
| 1 to 10 nM | CC(C)C[C@H](N)COc1cc2c(cc1C#N)-c1ccncc1C(C)O2 (mixture of isomers) [Example 22, 8-((S)-2-amino-4-methylpentyloxy)-5-methyl-5H-chromeno[3,4-c]pyridine-9-carbonitrile] | IC50 (AAK1 (full length human); listed as IC50 ranges): < 1 nM |
| 10 to 100 nM | CC1Oc2cc(OC[C@@H](N)CC3CCCC3)ccc2-c2ccncc21 (mixture of isomers) [Example 24, (2S)-1-cyclopentyl-3-(5-methyl-5H-chromeno[3,4-c]pyridin-8-yloxy)propan-2-amine] | IC50 (AAK1 (full length human); listed as IC50 ranges): 10 to 100 nM |
| 1 to 10 nM | CC(C)C[C@H](N)COc1cc2c(cc1Cl)-c1ccncc1C(C(F)(F)F)O2 (mixture of isomers) [Example 27, (2S)-1-((9-chloro-5-(trifluoromethyl)-5H-chromeno[3,4-c]pyridin-8-yl)oxy)-4-methylpentan-2-amine] | IC50 (AAK1 (full length human); listed as IC50 ranges): 1 to 10 nM |
| 1 to 10 nM | CC(C)C[C@H](N)COc1cc2c(cc1Br)-c1ccncc1C(C(F)(F)F)O2 (mixture of isomers) [Example 28, (2S)-1-((9-bromo-5-(trifluoromethyl)-5H-chromeno[3,4-c]pyridin-8-yl)oxy)-4-methylpentan-2-amine] | IC50 (AAK1 (full length human); listed as IC50 ranges): 1 to 10 nM |
| 10 to 100 nM | NC(CCC(F)(F)F)COc1ccc2c(c1)OCc1cnccc1-2 (racemic) [Example 17, 1-(5H-chromeno[3,4-c]pyridin-8-yloxy)-5,5,5-trifluoropentan-2-amine] | IC50 (AAK1 (full length human); listed as IC50 ranges): 10 to 100 nM |
| 10 to 100 nM | CC(C)C[C@@H](N)COc1ccc2c(c1)OC(C)c1cnccc1-2 (single isomer, unassigned) [Example 7b] |  |
| 100 to 1000 nM | CC(C)C[C@H](N)COc1ccc2c(c1)OC(C1CC1)c1cnccc1-2 (single isomer, unassigned) [Example 8a] |  |
|  | CC(C)C[C@@H](N)COc1ccc2c(c1)OC(C1CC1)c1cnccc1-2 (single isomer, unassigned) [Example 9b] | IC50 (AAK1 (full length human); numeric values): > 300 nM |
| 10 to 100 nM | CCC1Oc2cc(OC[C@@H](N)CC(C)C)ccc2-c2ccncc21 (single isomer, unassigned) [Example 10b] |  |
| 1 to 10 nM | CC(C)C[C@H](N)COc1cc2c(cc1I)-c1ccncc1C(C)O2 (single isomer, unassigned) [Example 31a] |  |
| 1 to 10 nM | CC(C)C[C@H](N)COc1cc2c(cc1I)-c1ccncc1C(C)O2 (single isomer, unassigned) [Example 31b] |  |
|  | CC(C)C[C@@H](N)COc1ccc2c(c1)OCc1cnccc1-2 [Example 1, (R)-1-(5H-chromeno[3,4-c]pyridin-8-yloxy)-4-methylpentan-2-amine] | IC50 (GST-Xa-hAAK1; numeric values): 20 nM |
| 100 to 1000 nM | N[C@@H](COc1ccc2c(c1)OCc1cnccc1-2)Cc1ccccc1 [Example 2, (R)-1-(5H-chromeno[3,4-c]pyridin-8-yloxy)-3-phenylpropan-2-amine] |  |
| 100 to 1000 nM | CC[C@@H](N)COc1ccc2c(c1)OCc1cnccc1-2 [Example 3, (R)-1-(5H-chromeno[3,4-c]pyridin-8-yloxy)butan-2-amine] |  |
| 10 to 100 nM | CC[C@H](N)COc1ccc2c(c1)OCc1cnccc1-2 [Example 4, (S)-1-(5H-chromeno[3,4-c]pyridin-8-yloxy)butan-2-amine] |  |
| 100 to 1000 nM | CC(C)C[C@@H](N)COc1ccc2c(c1)OC(C1CC1)c1cnccc1-2 (stereo partly drawn) [Example 9] |  |
| 100 to 1000 nM | CC(C)C[C@H](N)COc1ccc2c(c1)OC1(COC1)c1cnccc1-2 [Example 19, (S)-4-methyl-1-(spiro[chromeno[3,4-c]pyridine-5,3′-oxetan]-8-yloxy)pentan-2-amine] |  |
| 10 to 100 nM | CC(C)C[C@H](N)COc1ccc2c(c1)OC(CO)(CCl)c1cnccc1-2 (stereo partly drawn) [Example 20, (8-(((S)-2-amino-4-methylpentyl)oxy)-5-(chloromethyl)-5H-chromeno[3,4-c]pyridin-5-yl)methanol] |  |
| 1 to 10 nM | CC(C)C[C@H](N)COc1cc2c(cc1C#N)-c1ccncc1CO2 [Example 23, (S)-8-(2-amino-4-methylpentyloxy)-5H-chromeno[3,4-c]pyridine-9-carbonitrile] |  |
| 10 to 100 nM | CC(C)C[C@H](N)COc1ccc2c(c1)OC(C)c1cnc(N)cc1-2 (stereo partly drawn) [Example 29, 8-(((S)-2-amino-4-methylpentyl)oxy)-5-methyl-5H-chromeno[3,4-c]pyridin-2-amine] |  |
| 10 to 100 nM | CC(=O)Nc1cc2c(cn1)C(C)Oc1cc(OC[C@@H](N)CC(C)C)ccc1-2 (stereo partly drawn) [Example 30, N-(8-(((S)-2-amino-4-methylpentyl)oxy)-5-methyl-5H-chromeno[3,4-c]pyridin-2-yl)acetamide] |  |
| 10 to 100 nM | Cc1nccc2c1c(=O)oc1cc(OC[C@@H](N)CC(C)C)ccc12 [Example 34, (S)-8-((2-amino-4-methylpentyl)oxy)-4-methyl-5H-chromeno[3,4-c]pyridin-5-one] |  |
| 100 to 1000 nM | Cc1cc2c(cn1)COc1cc(OC[C@@H](N)CC(C)C)ccc1-2 [Example 39, (S)-4-methyl-1-((2-methyl-5H-chromeno[3,4-c]pyridin-8-yl)oxy)pentan-2-amine] |  |
| 1 to 10 nM | CC(=O)Nc1cc2c(cn1)COc1cc(OC[C@H](N)CC(C)C)ccc1-2 [Example 40, (R)-N-(8-(2-amino-4-methylpentyloxy)-5H-chromeno[3,4-c]pyridin-2-yl)acetamide] |  |
